Laboratory results taken from patent publication US20090233999A1, “COMPOSITIONS AND THERAPEUTIC METHODS INVOLVING ISOFLAVONES AND ANALOGUES THEREOF” (NOVOGEN RESEARCH PTY LTD, priority 1999, published 2009).
Each block holds one compound with its values, some of them ahead of it.

Assays:
[1] = test system: HCASMC; experiment: Proliferation of human coronary artery smooth muscle cells; format: cell-based; settings: VSMC, 120 h, five days, MTT
Protocol: Human coronary smooth muscle cells (HCASMC—Clonetics) supplied at passage 3 and used for up to a further 12 population doublings, were seeded into 96 well plates at a low seeding rate, 2-5×10^3 cells per well and allowed to attach and proliferate to 30-40% confluence for 24-48 hours. Prior to inoculation the medium was changed to fresh growth medium. Test compounds were prepared in growth medium and added to plates so that the final concentrations were a series from 150 μM to 0.6 μM. The cells were incubated for five days, cell number assessed using MTT and an IC50 for each compound calculated.

[2] = test system: 5-LO (LTB4 synthesis); experiment: Synthesis of LTB4 and metabolites by neutrophils (lipoxygenase); format: cell-based; settings: Neutrophil; calcium ionophore-stimulated human neutrophils
Protocol: The pathway for LTB4 synthesis involves initial release of AA from phospholipids by a Ca-dependent PLA2. The free AA is then oxygenated at by 5-LO (requiring enzyme activation by FLAP) to generate an epoxide intermediate (LTA4). LTA4 is then converted to LTB4 by LTA4 hydrolase. LTB4 is metabolised (and deactivated) by a cytochrome P-(CYP) 450 […] to produce 20-hydroxy and 20-carboxy metabolites. These metabolites are also measured in the HPLC assay.
Neutrophils were isolated from citrated human venous blood to >90% purity by centrifugation through Ficoll, dextran sedimentation and lysis of erythrocytes. Cells were washed in HEPES buffered Hanks solution (HBHS) and then suspended at 4.5 million cells/mL in HBHS containing 0.1% bovine serum albumin (HBHS+BSA).
Experiments had been carried out previously to optimise the stimulation of neutrophils by calcium ionophore. At 37° C., cells were incubated with the test compound in 10 μL DMSO for 5 min before addition of 100 μL of 25 ng/μL calcium ionophore (free acid form, Sigma) with 0.5% DMSO in HBHS+BSA. The cells were incubated for 10 min then pelleted by centrifugation at 4° C. for 5 min and the cell free supernatant used to quantitate the levels of LTB4 and its metabolites.
To each 900 μL aliquot of the supernatant, 25 μL of prostaglandin B2 (PGB2) 2.5 ng/μL in ethanol was added as internal standard. The solution was acidified to pH≦3 with 2M formic acid and the mixture extracted with 2 mL ethyl acetate and vigorous vortexing. The organic layer was collected and dried under nitrogen in a glass vial before reconstituted in 50 μL of the reconstitution solution (water:methanol:acetonitrile at 2:1:1).
Analysis was carried out using an HPLC system with a 125-4 LiChrospher®100 RP-18 (5 μm) column (Agilent Technologies) and a gradient system adapted from a published method to separate LTB4, its oxidation products 20-hydroxy LTB4 (20-OH-LTB4) and 20-carboxy LTB4 (20-COOH-LTB4), as well as PGB2. At 1 ml/min flow rate, a combination of three different mobile phase solutions was used:
A (water:methanol:acetonitrile:trifluoroacetic acid at 80:40:40:0.1, pH=3 with Et3N), B (methanol:acetonitrile at 1:1), and C (methanol).
UV absorbance was monitored at 270 nm, and LTB4 and its metabolites were quantitated by comparison of peak areas with that of internal standard and a standard curve prepared earlier.

[3] = test system: A7r5; experiment: Proliferation of rat aortic smooth muscle cell line A7r5; format: cell-based; settings: A7R5, 72 h, three days, read-out: VSMC proliferation - IC50 (μM), A7r5
Protocol: Human umbilical vein smooth muscle cells (HUVSMC), tissue explants from a neonate (HRI— passage 2), were seeded into 96 well plates at 1×10^3 cells per well, and allowed to attach for 24 hours. They were then washed twice and incubated in medium without FBS for 24-48 hours to serum-starve them. Test compounds were prepared in medium without FBS and added to the plates and incubated for one hour. Medium with FBS was added to give a final concentration of 10% and the plates incubated for 5 days until the controls were just confluent. Final analogue concentration was therefore either a series from 150 μM to 1.2 μM, or single concentrations of 10 μM. The difference in absorbance between treated cells and untreated cells was calculated using the formula, test/control*100, to obtain the percentage change caused by the test compound. As well, an IC50 for each compound was calculated.
The effect of test compounds a rat aortic smooth muscle cell line (A7r5) and another cell line from the media of rat aorta (A10) was examined. The methodology was the same as for HUVSMC, except that the cells were treated with compound for three days.

[4] = test system: IL-6; experiment: IL-6 production by murine splenocytes; format: cell-based, mouse; settings: 10 μM; Con A
Protocol: (§1) Male Skh-1 (hairless) mice, approximately six weeks old were killed by cervical dislocation. Single cell suspensions were made from the spleen and erythrocytes were lysed in buffer (0.14M NH4Cl, 17 mM Tris, pH 7.2). The remaining splenocytes were cultured in RPMI-1640 (Gibco) supplemented with 10% (v:v) FBS, 2 mM L-glutamine, pen/strep and 50 μM 2-mercaptoethanol. Splenocytes were added to quadruplicate wells containing either the T cell mitogen concanavalin A (Con A, Sigma-Aldrich—0. 4 μg/well), the B-cell mitogen LPS (Sigma-Aldrich—1 μg/well) or no mitogen, as well as test compound at a concentration of 10 μM in DMSO. Samples were analysed after a 3 day incubation at 37° C. in 5% CO2 in air. Cell viability was assessed by adding MTT to each well, incubating for a further 4 hrs and then developing colour with 0.04N HCl in isopropanol. Supernatant samples were frozen at −80° C. and IL-6, IFN-γ and TNFα were detected in triplicate using ELISA kits (BD Biosciences).

[5] = test system: rat aortic ring; experiment: Rat aortic ring assay, contractile response to noradrenaline; settings: 1 μg/ml
Protocol: The vasodilatory capacity was examined ex vivo using the rat aortic ring assay.
Male Sprague-Dawley rats (250±50 g) were euthanased with 80% CO2 and 20% O2. The thoracic aorta was excised and quickly mounted in organ-baths as described. Full concentration-contractile curves were obtained to noradrenaline (0.1 nM-[…]) with and without test compounds delivered at a concentration of 1 μg/ml. Experiments were repeated in n=5 different rings from 5 different animals. Only one compound at any one concentration was tested on any one ring from any one animal. Sigmoidal dose response curves were fitted for the data and the logEC50 and the Ema, calculated (Prism 4, GraphPad Software). The difference in these values between the presence and absence of test compound was calculated using a two-tailed paired t test. The effects of β-oestrodiol and vehicle alone were examined as a positive and negative control respectively.

[6] = test system: splenocytes (T and B cells); experiment: Murine splenocyte viability and proliferation (Con A, LPS, no mitogen; MTT); format: cell-based, mouse; settings: 10 μM, 3 day; for proliferation of T and B cells: Con A / LPS; for effect on non-proliferating (resting) splenocytes: no mitogen
Protocol: as §1

IC50 [2]: 0.5 µM
Structure (SMILES): COc1ccc(C2=Cc3ccc(O)cc3OC2)cc1OC [Cpd. 18, 7-Hydroxy-3′,4′-dimethoxyisoflav-3-ene]
IC50 [1]: 88 µM
IC50 [3]: 74 µM
IL-6 production in T cells [4]: reduced
contractile response (logEC50) of the aortic ring to noradrenaline [5]: inhibited

IC50 [2]: < 0.1 µM
Structure (SMILES): Cc1c(O)ccc2c1OCC(c1cccc(O)c1)=C2 [Cpd. 14, 3′,7-Dihydroxy-8-methylisoflav-3-ene]
IC50 [1]: 54 µM
IC50 [3]: 33 µM
proliferation of T and B cells [6]: augmented
effect on non-proliferating (resting) splenocytes [6]: augmented

IC50 [2]: 0.9 µM
Structure (SMILES): Oc1ccc(C2=Cc3ccc(O)c(Br)c3OC2)cc1 [Cpd. 20, 4′,7-Dihydroxy-8-bromoisoflav-3-ene]
IC50 [1]: 27 µM
IC50 [3]: 33 µM
proliferation of T and B cells [6]: inhibited
effect on non-proliferating (resting) splenocytes [6]: suppressive
IL-6 production in T cells [4]: most marked
contractile response (logEC50) of the aortic ring to noradrenaline [5]: significantly inhibited
strength of the contractile response (Emax) [5]: reduced

Structure (SMILES): Oc1ccc2c(c1)OCC(c1ccc(Br)cc1)=C2 [Cpd. 21, 4′-Bromo-7-hydroxyisoflav-3-ene]
IC50 [1]: 29 µM
contractile response (logEC50) of the aortic ring to noradrenaline [5]: inhibited

IC50 [2]: 0.3 µM
Structure (SMILES): COc1ccc(C2=Cc3ccc(O)c(C)c3OC2)cc1OC [Cpd. 19, 7-Hydroxy-3′,4′-dimethoxy-8-methylisoflav-3-ene]
IC50 [1]: 63 µM
IL-6 production in T cells [4]: reduced

IC50 [2]: 2.2 µM
Structure (SMILES): COc1cccc(C2=Cc3ccc(O)cc3OC2)c1 [Cpd. 16, 7-Hydroxy-3′-methoxyisoflav-3-ene]
IC50 [1]: 118 µM
IC50 [3]: 48 µM
proliferation of T and B cells [6]: augmented
effect on non-proliferating (resting) splenocytes [6]: augmented
IL-6 production in T cells [4]: reduced
